# Assay results taken from ChEMBL document CHEMBL5154757, “Phosphodiesters as GPR84 Antagonists for the Treatment of Ulcerative Colitis” (J Med Chem, 2022).
# How the values were obtained:
# [1] = Tmax in CD-1 mouse at 5 mg/kg, po administered as single dose measured upto 24 hrs by LC-MS/MS analysis; format: ADME, organism-based; details: in vivo
# [2] = Cmax in CD-1 mouse at 5 mg/kg, po administered as single dose measured upto 24 hrs by LC-MS/MS analysis; format: ADME, organism-based; set-up: time < 24 hrs, dose 5 mg/kg, route po; details: in vivo
# [3] = MRT in CD-1 mouse at 2 mg/kg, iv administered as single dose measured upto 24 hrs by LC-MS/MS analysis; format: ADME, organism-based; details: in vivo
# [4] = AUC(0 to infinity) in CD-1 mouse at 5 mg/kg, po administered as single dose measured upto 24 hrs by LC-MS/MS analysis; format: ADME, organism-based; set-up: time < 24 hrs, dose 5 mg/kg, route po; details: in vivo
# [5] = AUC(0 to infinity) in CD-1 mouse at 2 mg/kg, iv administered as single dose measured upto 24 hrs by LC-MS/MS analysis; format: ADME, organism-based; set-up: time < 24 hrs, dose 2 mg/kg, route iv; details: in vivo
# [6] = Half life in CD-1 mouse at 5 mg/kg, po administered as single dose measured upto 24 hrs by LC-MS/MS analysis; format: ADME, organism-based; details: in vivo
# [7] = Half life in CD-1 mouse at 2 mg/kg, iv administered as single dose measured upto 24 hrs by LC-MS/MS analysis; format: ADME, organism-based; details: in vivo
# [8] = Clearance in CD-1 mouse at 2 mg/kg, iv administered as single dose measured upto 24 hrs by LC-MS/MS analysis; format: ADME, organism-based; details: in vivo
# [9] = MRT in CD-1 mouse at 5 mg/kg, po administered as single dose measured upto 24 hrs by LC-MS/MS analysis; format: ADME, organism-based; details: in vivo
# [10] = Oral bioavailability in CD-1 mouse at 5 mg/kg administered as single dose measured upto 24 hrs by LC-MS/MS analysis; format: ADME, organism-based; details: in vivo
# [11] = Volume of distribution at steady state in CD-1 mouse at 2 mg/kg, iv administered as single dose measured upto 24 hrs by LC-MS/MS analysis; format: ADME, organism-based; details: in vivo, read-out: Vdss
# [12] = target: G-protein coupled receptor 84 (Homo sapiens, UniProt Q9NQS5); experiment: Antagonist activity at human GPR84 expressed in HEK293 cells co-expressing Galpha16 assessed as reduction in 6-OAU induced intracellular calcium response preincubated for 10 mins followed by agonist addition and measured after 1 min by calcium mobilization assay; format: functional, cell-based
# Chain of G-protein coupled receptor 84 (Homo sapiens, UniProt Q9NQS5) (Q9NQS5 whole entry): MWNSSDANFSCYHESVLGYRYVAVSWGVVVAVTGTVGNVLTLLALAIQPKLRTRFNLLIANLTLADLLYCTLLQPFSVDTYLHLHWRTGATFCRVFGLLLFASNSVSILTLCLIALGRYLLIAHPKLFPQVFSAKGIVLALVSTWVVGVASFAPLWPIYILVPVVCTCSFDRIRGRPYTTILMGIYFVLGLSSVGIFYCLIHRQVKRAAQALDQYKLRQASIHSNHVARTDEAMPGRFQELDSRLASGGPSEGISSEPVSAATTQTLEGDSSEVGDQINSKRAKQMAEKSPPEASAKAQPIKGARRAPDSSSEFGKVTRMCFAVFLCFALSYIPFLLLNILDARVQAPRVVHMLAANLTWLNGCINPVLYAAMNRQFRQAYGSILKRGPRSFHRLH
# [13] = target: G-protein coupled receptor 84 (Mus musculus, UniProt Q8CIM5); experiment: Antagonist activity at mouse GPR84 expressed in HEK293 cells assessed as reduction in 6-OAU induced intracellular calcium response preincubated for 10 mins followed by agonist addition and measured after 1 min by calcium mobilization assay; format: functional, cell-based
# Chain of G-protein coupled receptor 84 (Mus musculus, UniProt Q8CIM5) (Q8CIM5 whole entry): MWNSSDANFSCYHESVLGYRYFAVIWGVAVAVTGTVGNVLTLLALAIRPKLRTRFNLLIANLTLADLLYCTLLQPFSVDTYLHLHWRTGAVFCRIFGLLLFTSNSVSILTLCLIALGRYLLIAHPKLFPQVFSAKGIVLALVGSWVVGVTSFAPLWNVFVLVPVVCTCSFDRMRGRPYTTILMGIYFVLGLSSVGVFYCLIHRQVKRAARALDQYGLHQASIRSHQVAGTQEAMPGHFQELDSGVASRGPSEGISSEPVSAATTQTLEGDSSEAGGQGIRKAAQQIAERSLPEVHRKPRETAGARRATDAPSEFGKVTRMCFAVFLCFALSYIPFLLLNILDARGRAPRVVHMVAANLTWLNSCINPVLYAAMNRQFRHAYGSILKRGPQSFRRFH
# [14] = target: G-protein coupled receptor 84 (Mus musculus) (UniProt Q8CIM5); experiment: Antagonist activity at GPR84 expressed in mouse bone marrow cells assessed as reduction in 6-OAU induced migration in neutrophils incubated for 90 mins by flow cytometry; format: functional, cell-based; details: Bone marrow cell, filed as antagonist, dose 0.01-1 µM, DDE = dose-dependent effect
# Chain of G-protein coupled receptor 84 (Mus musculus) (Q8CIM5 whole entry): as above
# [15] = target: G-protein coupled receptor 84 (Mus musculus) (UniProt Q8CIM5); experiment: Antagonist activity at GPR84 expressed in mouse bone marrow cells assessed as reduction in 6-OAU/3-OH-C12 induced migration in monocytes incubated for 90 mins by flow cytometry; format: functional, cell-based; details: Bone marrow cell, filed as antagonist, dose 0.01-1 µM, DDE = dose-dependent effect
# [16] = Drug distribution in DSS-induced ulcerative colitis mouse jejunum at 5 mg/kg, po administered as single dose measured upto 8 hrs by LC-MS/MS analysis; format: ADME, organism-based; details: in vivo
# [17] = Drug distribution in DSS-induced ulcerative colitis mouse colon at 5 mg/kg, po administered as single dose measured upto 8 hrs by LC-MS/MS analysis; format: ADME, organism-based; details: in vivo
# [18] = test system: Mus musculus; experiment: Anti-colitis activity against DSS-induced ulcerative colitis mouse model assessed as attenuation of weight loss administered orally once daily for 7 consecutive days; format: functional, organism-based; details: dose 25-100 mg/kg, route po, DDE = dose-dependent effect
# [19] = test system: Mus musculus; experiment: Anti-colitis activity against DSS-induced ulcerative colitis mouse model assessed as attenuation of stool thinning administered orally once daily for 7 consecutive days; format: functional, organism-based; details: dose 25-100 mg/kg, route po, DDE = dose-dependent effect
# [20] = test system: Mus musculus; experiment: Anti-colitis activity against DSS-induced ulcerative colitis mouse model assessed as attenuation of rectal bleeding administered orally once daily for 7 consecutive days; format: functional, organism-based; details: dose 25-100 mg/kg, route po, DDE = dose-dependent effect
# [21] = test system: Mus musculus; experiment: Anti-colitis activity against DSS-induced ulcerative colitis mouse model assessed as reduction in DAI score administered orally once daily for 7 consecutive days; format: functional, organism-based; details: dose 25-100 mg/kg, route po, DDE = dose-dependent effect
# [22] = target: G-protein coupled receptor 84 (Mus musculus) (UniProt Q8CIM5); experiment: Antagonist activity at GPR84 expressed in mouse bone marrow cells assessed as reduction in 3-OH-C12 induced migration in neutrophils incubated for 90 mins by flow cytometry; format: functional, cell-based; details: Bone marrow cell, filed as antagonist, dose 0.01-1 µM, DDE = dose-dependent effect
# [23] = target: G-protein coupled receptor 84 (Mus musculus) (UniProt Q8CIM5); experiment: Antagonist activity at GPR84 expressed in mouse bone marrow cells assessed as reduction in 3-OH-C12 induced migration in monocytes incubated for 90 mins by flow cytometry; format: functional, cell-based; details: Bone marrow cell, filed as antagonist, dose 0.01-1 µM, DDE = dose-dependent effect
# [24] = test system: HEK293; experiment: Cytotoxicity against HEK293 cells assessed as inhibition of cell growth upto 100 uM measured after 24 hrs by ATPlite assay; format: toxicity, cell-based; details: human, hek293, 24 h
# [25] = Drug distribution in C57 mouse liver at 3 mg/kg, iv administered as single dose measured upto 8 hrs by LC-MS/MS analysis; format: ADME, organism-based; details: in vivo
# [26] = Drug distribution in C57 mouse duodenum at 5 mg/kg, po administered as single dose measured upto 8 hrs by LC-MS/MS analysis; format: ADME, organism-based; details: in vivo
# [27] = Drug distribution in C57 mouse jejunum at 5 mg/kg, po administered as single dose measured upto 8 hrs by LC-MS/MS analysis; format: ADME, organism-based; details: in vivo
# [28] = Drug distribution in C57 mouse ileum at 5 mg/kg, po administered as single dose measured upto 8 hrs by LC-MS/MS analysis; format: ADME, organism-based; details: in vivo
# [29] = Drug distribution in C57 mouse colon at 5 mg/kg, po administered as single dose measured upto 8 hrs by LC-MS/MS analysis; format: ADME, organism-based; details: in vivo
# [30] = test system: Bone marrow cell; experiment: Cytotoxicity against bone marrow cells (unknown origin) assessed as inhibition of cell growth upto 10 uM measured after 1.5 to 2 hrs by ATPlite assay; format: toxicity, cell-based; details: time 1.5-2 hrs
# [31] = Mutagenecity in Salmonella typhimurium TA98 in presence of S9 fraction at 1000 ug by Ames test; format: toxicity, subcellular, Salmonella enterica subsp. enterica serovar Typhimurium; details: dose 1000 µg
# [32] = Mutagenecity in Salmonella typhimurium TA98 in absence of S9 fraction at 1000 ug by Ames test; format: toxicity, Salmonella enterica subsp. enterica serovar Typhimurium; details: in vivo; dose 1000 µg
# [33] = Mutagenecity in Salmonella typhimurium TA100 in presence of S9 fraction at 1000 ug by Ames test; format: toxicity, subcellular, Salmonella enterica subsp. enterica serovar Typhimurium; details: dose 1000 µg
# [34] = Mutagenecity in Salmonella typhimurium TA100 in absence of S9 fraction at 1000 ug by Ames test; format: toxicity, Salmonella enterica subsp. enterica serovar Typhimurium; details: in vivo; dose 1000 µg
structure (smiles),measurement,setting,value
COc1cccc2c1Sc1cccc(F)c1C=C2OP(=O)([O-])OC1=Cc2c(F)cccc2Sc2c(OC)cccc21.[Na+],Tmax,[1],0.42 h
same,Cmax,[2],74.3 ng/mL
same,MRT,[3],1.89 h
same,AUC(0-inf),[4],178 ng·h/mL
same,AUC(0-inf),[5],7760 ng·h/mL
same,half-life,[6],1.91 h
same,half-life,[7],5.75 h
same,clearance,[8],4.33 mL/min/kg
same,MRT,[9],2.21 h
same,bioavailability,[10],0.91%
same,Vd,[11],0.5 L/kg
O=P(O)(O)OC1=Cc2ccccc2Sc2ccccc21,IC50,[12],> 100000 nM
O=P(O)(CC1=Cc2ccccc2Sc2ccccc21)CC1=Cc2ccccc2Sc2ccccc21,IC50,[12],1930 nM
COc1cccc2c1Sc1ccccc1C=C2OP(=O)([O-])OC1=Cc2ccccc2Sc2c(OC)cccc21.[Na+],Tmax,[1],1 h
same,Cmax,[2],43.6 ng/mL
same,MRT,[3],1.82 h
same,AUC(0-inf),[4],236 ng·h/mL
same,AUC(0-inf),[5],4640 ng·h/mL
same,half-life,[6],4.99 h
same,half-life,[7],5.59 h
same,clearance,[8],7.5 mL/min/kg
same,MRT,[9],7.41 h
same,bioavailability,[10],2.3%
same,Vd,[11],0.8 L/kg
COP(=O)(OC1=Cc2ccccc2Sc2ccccc21)OC1=Cc2ccccc2Sc2ccccc21,IC50,[12],> 100000 nM
O=c1nc(OCC2COCCO2)cc2n1CCc1cc(OCc3ccccn3)ccc1-2 (stereo unspecified),IC50,[12],716 nM
O=P([O-])(OC1=Cc2c(Cl)cccc2Sc2ccccc21)OC1=Cc2c(Cl)cccc2Sc2ccccc21.[Na+],IC50,[13],273 nM
same,Activity,[14],Dde
same,Activity,[15],Dde
same,Tmax,[1],2.67 h
same,Cmax,[2],81.8 ng/mL
same,MRT,[3],2.26 h
same,AUC(0-inf),[4],517 ng·h/mL
same,AUC(0-inf),[5],1710 ng·h/mL
same,half-life,[6],4.39 h
same,half-life,[7],5.12 h
same,clearance,[8],20.3 mL/min/kg
same,MRT,[9],7.09 h
same,bioavailability,[10],11.9%
same,Vd,[11],2.98 L/kg
same,Drug uptake,[16],Active
same,Drug uptake,[17],Active
same,Activity,[18],Dde
same,Activity,[19],Dde
same,Activity,[20],Dde
same,Activity,[21],Dde
same,Activity,[22],Dde
same,Activity,[23],Dde
same,Activity,[24],Non-Toxic
same,Drug uptake,[25],Active
same,Drug uptake,[26],Active
same,Drug uptake,[27],Active
same,Drug uptake,[28],Active
same,Drug uptake,[29],Active
same,Activity,[30],Non-Toxic
same,Activity,[31],Non-Toxic
same,Activity,[32],Non-Toxic
same,Activity,[33],Non-Toxic
same,Activity,[34],Non-Toxic
O=P([O-])(OC1=Cc2ccccc2Sc2ccccc21)OC1=Cc2ccccc2Sc2ccccc21.[Na+],IC50,[13],454 nM
same,Tmax,[1],1.67 h
same,Cmax,[2],192 ng/mL
same,MRT,[3],0.932 h
same,AUC(0-inf),[4],562 ng·h/mL
same,AUC(0-inf),[5],1420 ng·h/mL
same,half-life,[6],1.62 h
same,half-life,[7],1.14 h
same,clearance,[8],23.7 mL/min/kg
same,MRT,[9],4.05 h
same,bioavailability,[10],15.7%
same,Vd,[11],1.31 L/kg
O=c1nc(OC[C@@H]2COCCO2)cc2n1CCc1cc(C#CC3CC3)ccc1-2,Activity,[14],Dde
same,Activity,[15],Dde
same,Activity,[22],Dde
same,Activity,[23],Dde
O=P(O)(Oc1ccccc1)Oc1ccccc1,IC50,[12],> 100000 nM
